Data set [1] has as its target CYP2E1 (Homo sapiens, UniProt P05181). Put plainly: biochemical.
Data set [2] has as its target T1, UGT1A9 (Homo sapiens, UniProt O60656).
T1 sequence (O60656 26-530): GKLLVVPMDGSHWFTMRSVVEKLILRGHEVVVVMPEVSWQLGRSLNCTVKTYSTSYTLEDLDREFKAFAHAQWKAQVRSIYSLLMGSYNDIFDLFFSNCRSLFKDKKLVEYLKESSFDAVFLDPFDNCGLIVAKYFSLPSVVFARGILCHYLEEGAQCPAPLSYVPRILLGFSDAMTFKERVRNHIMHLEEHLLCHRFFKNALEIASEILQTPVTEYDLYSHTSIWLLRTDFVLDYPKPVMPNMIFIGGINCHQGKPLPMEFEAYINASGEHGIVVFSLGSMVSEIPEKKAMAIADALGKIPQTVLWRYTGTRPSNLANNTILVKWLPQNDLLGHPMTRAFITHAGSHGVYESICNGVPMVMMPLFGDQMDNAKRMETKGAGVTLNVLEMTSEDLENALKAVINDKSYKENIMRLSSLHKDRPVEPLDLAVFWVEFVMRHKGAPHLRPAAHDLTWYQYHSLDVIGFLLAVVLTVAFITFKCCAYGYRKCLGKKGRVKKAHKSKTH
Put plainly: biochemical.

The target in data set [3] is T2, ASBT (Homo sapiens, UniProt Q12908).
T2 sequence (Q12908 1-348): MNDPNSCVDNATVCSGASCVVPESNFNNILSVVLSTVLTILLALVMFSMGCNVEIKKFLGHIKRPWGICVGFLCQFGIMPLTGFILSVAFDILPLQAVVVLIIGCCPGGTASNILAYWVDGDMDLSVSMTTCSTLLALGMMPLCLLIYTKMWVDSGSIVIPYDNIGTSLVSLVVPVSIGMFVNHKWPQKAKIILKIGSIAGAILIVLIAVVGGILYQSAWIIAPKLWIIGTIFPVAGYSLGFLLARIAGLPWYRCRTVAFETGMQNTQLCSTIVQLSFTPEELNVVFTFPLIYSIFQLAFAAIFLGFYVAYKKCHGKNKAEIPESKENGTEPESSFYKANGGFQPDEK
Conditions: inhibition of ASBT, implemented in DDI model; ref [38]; cited from earlier work.

Data set [4] relates to OAT3. The following applies: inhibition of OAT3, implemented in DDI model; ref [41]; cited from earlier work.
For data set [5], the target named is T3, UGT2B7 (Homo sapiens, UniProt P16662).
T3 sequence (P16662 24-529): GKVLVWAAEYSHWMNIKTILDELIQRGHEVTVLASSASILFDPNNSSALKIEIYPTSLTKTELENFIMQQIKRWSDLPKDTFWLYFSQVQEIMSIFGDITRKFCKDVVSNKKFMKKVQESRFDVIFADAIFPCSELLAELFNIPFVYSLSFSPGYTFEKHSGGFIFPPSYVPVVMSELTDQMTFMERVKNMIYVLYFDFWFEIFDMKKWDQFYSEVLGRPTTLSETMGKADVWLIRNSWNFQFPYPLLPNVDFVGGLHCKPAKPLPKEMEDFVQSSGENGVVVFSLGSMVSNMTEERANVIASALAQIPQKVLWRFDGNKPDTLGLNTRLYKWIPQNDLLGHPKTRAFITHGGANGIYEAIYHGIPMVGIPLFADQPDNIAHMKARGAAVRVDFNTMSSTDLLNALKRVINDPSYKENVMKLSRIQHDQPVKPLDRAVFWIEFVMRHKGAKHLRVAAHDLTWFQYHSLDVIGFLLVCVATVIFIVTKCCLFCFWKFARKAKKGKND
Kind of data set: biochemical.

Data set [6] addresses T4, MATE1 (Homo sapiens, UniProt Q96FL8).
T4 sequence (Q96FL8 1-570): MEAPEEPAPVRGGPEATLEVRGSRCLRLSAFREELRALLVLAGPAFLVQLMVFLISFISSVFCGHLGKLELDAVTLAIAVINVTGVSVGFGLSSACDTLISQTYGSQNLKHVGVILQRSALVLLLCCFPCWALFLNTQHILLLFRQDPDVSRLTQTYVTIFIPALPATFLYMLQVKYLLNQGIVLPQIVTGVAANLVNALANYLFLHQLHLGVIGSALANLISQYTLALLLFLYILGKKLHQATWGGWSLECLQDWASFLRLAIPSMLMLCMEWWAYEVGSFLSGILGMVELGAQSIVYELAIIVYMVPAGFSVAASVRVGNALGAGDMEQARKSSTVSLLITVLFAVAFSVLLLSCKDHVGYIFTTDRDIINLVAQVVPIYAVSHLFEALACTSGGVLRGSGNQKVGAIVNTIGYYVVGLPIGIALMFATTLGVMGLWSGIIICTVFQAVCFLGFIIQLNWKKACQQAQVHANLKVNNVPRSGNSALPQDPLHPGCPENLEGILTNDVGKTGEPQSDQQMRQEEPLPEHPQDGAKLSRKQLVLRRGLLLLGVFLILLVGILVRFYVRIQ
Conditions: 4 µM probe substrate, HEK 293-MATE1. As for the experimental part: (§1) OCT1-, OCT2-, MATE1-, and MATE2K-overexpressing HEK 293 cells and mock cells. To
(§2) aminohippuric acid for OAT1, 4 µM [14C]Metformin for OCT1, OCT2, MATE1, and
(§3) lein for OATP2B1, 100 µM probenecid for OAT1, 100 µM verapamil for OCT1, 200 µM
(§4) and MATE2K, respectively).
(§5) and –MATE2K and mock cells.

The target of data set [7] is T5, OCT1 (Homo sapiens, UniProt O15245).
T5 sequence (O15245 1-554): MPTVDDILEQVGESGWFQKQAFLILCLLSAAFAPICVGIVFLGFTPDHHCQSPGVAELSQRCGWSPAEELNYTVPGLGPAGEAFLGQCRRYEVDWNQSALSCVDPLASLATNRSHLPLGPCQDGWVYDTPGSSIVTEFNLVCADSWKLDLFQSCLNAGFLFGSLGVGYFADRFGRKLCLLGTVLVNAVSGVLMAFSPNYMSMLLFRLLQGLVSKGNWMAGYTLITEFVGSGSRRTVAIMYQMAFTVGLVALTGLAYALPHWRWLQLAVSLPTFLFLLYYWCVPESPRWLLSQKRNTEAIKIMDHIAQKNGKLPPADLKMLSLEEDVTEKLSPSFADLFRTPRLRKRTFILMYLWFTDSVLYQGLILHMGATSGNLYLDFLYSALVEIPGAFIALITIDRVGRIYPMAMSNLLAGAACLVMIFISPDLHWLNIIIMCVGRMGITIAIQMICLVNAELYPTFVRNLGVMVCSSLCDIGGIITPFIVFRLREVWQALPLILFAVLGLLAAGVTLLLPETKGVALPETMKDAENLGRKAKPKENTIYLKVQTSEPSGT
Conditions: 4 µM probe substrate, HEK 293-OCT1. As for the experimental part: as §1, §2, §3, §4, §5

For data set [8], the target named is T6, OCT2 (Homo sapiens, UniProt O15244).
T6 sequence (O15244 1-555): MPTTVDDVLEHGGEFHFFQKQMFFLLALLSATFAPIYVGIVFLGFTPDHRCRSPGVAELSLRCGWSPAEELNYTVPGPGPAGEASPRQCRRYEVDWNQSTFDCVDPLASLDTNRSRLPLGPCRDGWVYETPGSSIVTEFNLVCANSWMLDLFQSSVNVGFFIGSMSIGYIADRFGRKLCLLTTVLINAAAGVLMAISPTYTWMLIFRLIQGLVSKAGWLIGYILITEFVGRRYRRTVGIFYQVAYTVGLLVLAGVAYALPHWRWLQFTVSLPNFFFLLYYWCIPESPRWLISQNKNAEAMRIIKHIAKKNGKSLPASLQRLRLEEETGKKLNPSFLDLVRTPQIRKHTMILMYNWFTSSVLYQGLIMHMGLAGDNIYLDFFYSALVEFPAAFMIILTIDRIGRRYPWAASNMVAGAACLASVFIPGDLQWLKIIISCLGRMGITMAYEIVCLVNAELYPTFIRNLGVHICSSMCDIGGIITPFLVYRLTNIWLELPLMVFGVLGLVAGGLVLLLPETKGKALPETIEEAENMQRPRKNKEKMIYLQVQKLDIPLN
The following applies: 4 µM probe substrate, HEK 293-OCT2. As for the experimental part:
as §1, §2, §3, §4, §5

The target of data set [9] is MATE2K (Homo sapiens, UniProt Q86VL8). Conditions: 4 µM probe substrate, HEK 293-MATE2K. The protocol: as §1, §2, §3, §4, §5
In data set [10] the target is T7, UGT1A4 (Homo sapiens, UniProt P22310).
T7 sequence (P22310 29-534): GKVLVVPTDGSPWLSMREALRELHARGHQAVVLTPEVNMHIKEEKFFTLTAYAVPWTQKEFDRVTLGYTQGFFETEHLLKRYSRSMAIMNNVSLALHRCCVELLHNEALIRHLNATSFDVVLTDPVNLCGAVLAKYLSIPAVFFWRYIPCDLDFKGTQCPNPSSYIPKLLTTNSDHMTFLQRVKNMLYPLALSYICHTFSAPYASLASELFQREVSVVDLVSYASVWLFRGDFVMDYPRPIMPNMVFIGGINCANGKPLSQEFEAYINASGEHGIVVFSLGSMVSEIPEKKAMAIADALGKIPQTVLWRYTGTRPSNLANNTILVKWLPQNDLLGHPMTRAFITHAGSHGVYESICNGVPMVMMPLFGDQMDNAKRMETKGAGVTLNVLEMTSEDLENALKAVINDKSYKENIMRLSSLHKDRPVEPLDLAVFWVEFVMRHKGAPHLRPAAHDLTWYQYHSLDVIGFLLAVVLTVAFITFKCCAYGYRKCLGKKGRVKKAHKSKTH
Put plainly: biochemical.

Data set [11] deals with T8, UGT1A1 (Homo sapiens, UniProt P22309).
T8 sequence (P22309 26-533): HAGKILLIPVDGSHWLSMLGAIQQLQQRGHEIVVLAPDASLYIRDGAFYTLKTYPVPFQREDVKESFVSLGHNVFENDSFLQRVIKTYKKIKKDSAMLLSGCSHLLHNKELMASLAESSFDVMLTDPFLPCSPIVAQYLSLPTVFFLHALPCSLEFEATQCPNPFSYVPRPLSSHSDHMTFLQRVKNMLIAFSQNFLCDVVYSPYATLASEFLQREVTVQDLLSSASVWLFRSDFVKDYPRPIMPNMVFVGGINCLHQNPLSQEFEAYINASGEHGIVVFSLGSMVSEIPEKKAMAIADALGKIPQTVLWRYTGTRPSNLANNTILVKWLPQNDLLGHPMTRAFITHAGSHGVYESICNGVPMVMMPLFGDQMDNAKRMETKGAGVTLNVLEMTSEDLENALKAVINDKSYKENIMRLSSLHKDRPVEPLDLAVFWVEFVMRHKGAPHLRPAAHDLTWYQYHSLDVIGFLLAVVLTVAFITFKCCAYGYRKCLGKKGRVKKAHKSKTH
Put plainly: biochemical.

The target of data set [12] is T9, CYP2C8 (Homo sapiens, UniProt P10632).
T9 sequence (P10632 1-490): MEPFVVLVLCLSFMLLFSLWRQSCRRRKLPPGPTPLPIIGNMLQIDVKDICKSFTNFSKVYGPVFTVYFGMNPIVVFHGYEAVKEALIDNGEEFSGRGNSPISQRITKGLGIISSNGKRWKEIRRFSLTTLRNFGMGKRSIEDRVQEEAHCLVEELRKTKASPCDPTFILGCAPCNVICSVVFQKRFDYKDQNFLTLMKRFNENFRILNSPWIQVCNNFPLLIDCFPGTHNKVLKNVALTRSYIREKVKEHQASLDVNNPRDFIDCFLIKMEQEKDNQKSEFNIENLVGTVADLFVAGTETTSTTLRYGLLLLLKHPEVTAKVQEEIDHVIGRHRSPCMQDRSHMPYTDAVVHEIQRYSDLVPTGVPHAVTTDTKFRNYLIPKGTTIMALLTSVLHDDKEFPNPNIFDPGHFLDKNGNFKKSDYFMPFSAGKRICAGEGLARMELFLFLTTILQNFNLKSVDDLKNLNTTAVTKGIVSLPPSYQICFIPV
The following applies: read-out: Positive control IC50; Rosiglitazone hydroxylation; in-house data, similar to the reference values [1].

Molecules are shown by their SMILES.

Chain of MATE2K (Q86VL8 1-566 isoform Q86VL8-3): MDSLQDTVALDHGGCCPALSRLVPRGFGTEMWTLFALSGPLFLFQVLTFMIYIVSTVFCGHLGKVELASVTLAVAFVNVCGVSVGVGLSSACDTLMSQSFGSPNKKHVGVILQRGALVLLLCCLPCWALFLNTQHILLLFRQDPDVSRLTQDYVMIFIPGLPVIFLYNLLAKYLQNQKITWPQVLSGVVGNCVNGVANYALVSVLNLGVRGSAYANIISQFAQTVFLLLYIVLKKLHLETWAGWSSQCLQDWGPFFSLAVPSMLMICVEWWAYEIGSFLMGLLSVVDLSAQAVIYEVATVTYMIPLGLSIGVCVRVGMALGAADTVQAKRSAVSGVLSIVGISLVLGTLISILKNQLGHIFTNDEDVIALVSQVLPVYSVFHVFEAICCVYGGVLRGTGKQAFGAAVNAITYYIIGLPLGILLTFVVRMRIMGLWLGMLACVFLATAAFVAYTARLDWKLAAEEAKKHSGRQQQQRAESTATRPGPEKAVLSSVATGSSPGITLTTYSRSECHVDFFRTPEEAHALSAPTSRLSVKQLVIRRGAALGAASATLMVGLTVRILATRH
Chain of CYP2E1 (P05181 whole entry): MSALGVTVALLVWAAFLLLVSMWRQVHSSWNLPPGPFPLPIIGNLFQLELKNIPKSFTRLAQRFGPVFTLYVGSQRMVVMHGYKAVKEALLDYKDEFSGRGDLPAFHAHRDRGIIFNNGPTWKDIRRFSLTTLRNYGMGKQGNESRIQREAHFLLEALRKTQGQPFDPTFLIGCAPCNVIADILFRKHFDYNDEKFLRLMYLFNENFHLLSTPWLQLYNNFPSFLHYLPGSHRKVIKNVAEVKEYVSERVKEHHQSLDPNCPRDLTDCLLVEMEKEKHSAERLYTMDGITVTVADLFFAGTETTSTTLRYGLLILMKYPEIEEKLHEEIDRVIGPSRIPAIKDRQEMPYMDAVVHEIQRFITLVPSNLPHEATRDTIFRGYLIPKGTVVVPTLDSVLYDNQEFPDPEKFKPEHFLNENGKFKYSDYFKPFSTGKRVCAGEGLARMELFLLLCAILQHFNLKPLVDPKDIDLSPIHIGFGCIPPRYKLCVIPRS

`CCN(CC)C(=S)S` [Diethyldithio-carbamate]: inhibition in data set [1] was half-maximal at 16.7 µM (IC50).
Consider `O=C(O)c1cccnc1Nc1cccc(C(F)(F)F)c1` [Niflumic acid], for which it took 0.28 µM to reach half-maximal inhibition in [2] (IC50).
With `CCc1ccc(CCOc2ccc(CC3SC(=O)NC3=O)cc2)nc1` (stereo not drawn) [pioglitazone], the inhibition constant (Ki) (usually the equilibrium dissociation constant of an inhibitor or competing ligand from its target) in [3] is 54.6 µM; in data set [4], 1.02 µM.
With `O=C1Nc2ccc(Cl)cc2[C@@](C#CC2CC2)(C(F)(F)F)O1` [Efavirenz], in [5], the IC50 – broadly, the concentration that inhibits the measured activity by half – came out at 27.3 µM.
`CN(C)C(N)=NC(=N)N` [[14C]Metformin]: the “Increase of probe substrate uptake rate in transporter-expressing cells compared to mock cells” value in data set [6] is 18.3 fold; in data set [7] it was 4.8 fold; in data set [8] it was 8.0 fold; in data set [9] it was 4.2 fold.
`C[C@@H]1CC[C@@]2(OC1)O[C@H]1C[C@H]3[C@@H]4CC[C@H]5C[C@@H](O)CC[C@]5(C)[C@H]4CC(=O)[C@]3(C)[C@H]1[C@@H]2C` [Hecogenin] registered an IC50 in data set [10] of 2.1 µM.
In the case of `COC(=O)N[C@H](C(=O)N[C@@H](Cc1ccccc1)[C@@H](O)CN(Cc1ccc(-c2ccccn2)cc1)NC(=O)[C@@H](NC(=O)OC)C(C)(C)C)C(C)(C)C` [Atazanavir], in data set [11], half-maximal inhibition (IC50) required 0.29 µM.
Turning to `O=c1c(O)c(-c2ccc(O)c(O)c2)oc2cc(O)cc(O)c12` [Quercetin], in data set [12], the IC50 was 8.47 µM.

The values are drawn from publication PMC8308925 (Pharmaceuticals, 2021).
